Data as given in patent publication US20150353626A1, “APOLIPOPROTEIN A-I DERIVED PEPTIDES FOR TREATMENT OF HYPERGLYCAEMIA” (priority 2013, published 2015).

Columns and labels:
Type in all cases: cell-based
L6 myotubes = experiment: Glucose uptake in L6 myotubes (2-[3H]-deoxy-D-glucose)
Method: L6 myoblasts (ATCC #CRL-1458) were grown in α-MEM (Invitrogen) supplemented with 10% FBS (Sigma) and 1% antibiotic/antimycotic (Penicillin, streptomycin, amphotericin B; Invitrogen). Differentiation to myotubes was achieved by switching from growth media to 2% FBS a-MEM for 6-7 or 6-12 days. Cells were maintained at 37° C. and 5% CO2.
Prior to stimulation (or treatment) cells were starved for 2 hours in serum-free a-MEM and all subsequent treatments, which were performed in triplicate and included cytochalasin B (Sigma) as a measure of cell associated non-specific radioactivity, were performed in uptake buffer (140 mmol/l NaCl, 20 mmol/l HEPES, 5 mmol/l KCl, 2.5 mmol/l MgSO4, 1 mmol/l CaCl2, pH 7.4). After stimulation, treatments were replaced with 10 μmol/l 2-deoxy-D-glucose (Sigma), 10 μmol/l 2-[3H]-deoxy-D-glucose (Perkin Elmer) in uptake buffer for 15 mins at room temperature. Cells were then washed twice with ice cold PBS and lysed with 1 mol/l NaOH on ice. Lysates were collected and radioactivity quantified by scintillation counting.
In order to investigate the effect of discodial HDL (rHDL) on GLUT4 translocation and glucose uptake, we produced recombinant human apoA-I and reconstituted HDL needed for cell incubations. L6 myotubes were incubated with 50 μg/ml (1.6 μmol/l) apoA-I for 1 hour followed by a glucose uptake assay as described above. […] Next, L6 myotubes were treated by incubation with 50 μg/ml discodial rHDL (expressed as total concentration of apoA-I in rHDL, given 2 apoA-I molecules per particle) for 1 hour. […] This experiment was thereafter repeated in more controlled manner including cell number and quality (cells were similarly treated during differentiation from myoblasts to multinuclear myotubes, with respect to the time between splitting cells, cell density, passage of cells used.) (FIG. 7c).
The relative effect of specific regions of apoA-I to increase glucose uptake was investigated using truncated protein fragments corresponding to residues 1-189 (N-terminal/central domain), 44-189 (central domain), 44-243 (central/C-terminal domain) and 190-243 (C-terminal domain) of full-length apoA-I (FIG. 4a). The treatments with incubation of truncated protein fragments were performed as described above for treatment of L6 myotubes with full-length apoA-I and followed by a glucose uptake assay as described above.
To test for the contribution of the constituent phospholipid to rHDL-induced glucose uptake in L6 myotubes, rHDL made with DMPC was also produced and compared to 100 nm DMPC vesicles containing no apoA-I protein. Stable 100 nm diameter vesicles can be synthesized with DMPC in the absence of apoA-I and was therefore used as a phospholipid control. The effect on the glucose uptake was tested as described above. […] To also test for the contribution of the constituent POPC phospholipid to rHDL-induced glucose uptake, rHDL made with POPC was compared with 100 nm POPC vesicles containing no apoA-I protein.

GLUT4 = GLUT4 translocation to plasma membrane in primary FDB muscle fibers (HA immunofluorescence, ex vivo); conditions: FDB fibers of HA-GLUT4-GFP mouse, 60 minutes, insulin 100 nmol/l, FIGS. 1d/7d, 4c/9a
Method: To support the glucose uptake observations described in Example 2, the ability of rHDL and the 190-243 polypeptide fragment (SEQ ID NO:1) to increase the amount of GLUT4 in the plasma membrane was assessed by immunofluorescence microscopy of intact primary skeletal flexor digitorum brevis (FDB) muscle fibers, isolated from a transgenic mouse model with muscle-specific HA-GLUT4-GFP expression (Lizunov et al. (2012) Am J Physiol Endocrinol Metab 302: E950-960). The HA epitope present on the first exofacial loop of the HA-GLUT4-GFP construct allows detection of GLUT4 inserted into the plasma membrane. Intact FDB fibers were incubated ex vivo with rHDL followed by fixation and HA antibody labeling of non-permeabilized cells as described below.
Two to five transgenic mice (C57/Bl6; 10-14 weeks) with muscle specific HA-GLUT4-GFP expression (gift from S. Cushman) (Lizunov et al. (2012) Am J Physiol Endocrinol Metab 302: E950-960), were used for each condition. The animals were euthanized and flexor digitorum brevis (FDB) muscles dissected out and incubated with oxygenated Krebs-Henseleit carbonate Hepes (KRBH) buffer (6 mmol/l KCl, 1 mmol/l Na2HPO4, 0.2 mmol/l NaHPO4, 1.4 mmol/l MgSO4, 1 mmol/l CaCl2, 128 mmol/l NaCl, 10 mmol/l HEPES pH 7.4) with 0.5% (w/v) bovine serum albumin. […]

rat adipocytes = experiment: Glucose uptake in isolated rat adipocytes; conditions: insulin 100 nmol/l, 190-243 fragment 30 μg/ml, FIG. 9b
Method: Adipose cells were prepared as previously described (Rodbell (1964) J Biol Chem. 239: 375-80). In brief, epidydymal fat pads were minced and digested in Krebs-Ringer-bicarbonate-HEPES (KRBH) buffer, pH 7.4, containing 10 mM sodium bicarbonate, 30 mM HEPES, 200 nM adenosine, 1% bovine serum albumin (BSA) with 1 mg/ml collagenase. After digestion, the cells were filtered through nylon mesh (250 μm) and washed with KRBH-buffer.
Isolated rat adipocytes were treated for 60 min with insulin (100 nmol/l), 190-243 polypeptide fragment (having the amino acid sequence consisting of SEQ ID NO:1) (30 μg/ml) or 1-243 human apoA-I protein (150 μg/ml) followed by glucose uptake measurement by addition of UC14 tracer glucose (Perkin Elmer) (30 min). The uptake was terminated by centrifugation through dinonyl phtalate oil. Incubation with Cytochalasin B was used to subtract unspecific background binding. Amount of glucose was detected as count radioactivity measured by Beta CounterThe amount of glucose transported was measured using an isotope labeled UC14-assay.

Substance	glucose uptake, fold change versus control (L6 myotubes; apoA-I fragment, 60 minutes, FIGS. 4b and 8b) [fold]	GLUT4 in the sarcolemma plasma membrane (HA signal, in words) (GLUT4)	glucose uptake in adipocytes (in words) (rat adipocytes)	glucose uptake over basal/Control, repeated experiment (L6 myotubes; 2 μmol/l (60 μg/ml) POPC rHDL or 100 nmol/l insulin, 60 minutes, FIG. 7c) [fold]	glucose uptake over basal (L6 myotubes; 50 μg/ml rHDL (as apoA-I) or 100 nmol/l insulin, 1 hour, FIG. 1c, rHDL p=0.095) [fold]	increased glucose uptake (L6 myotubes; 2 h serum starved, 50 μg/ml (1.6 μmol/l) apoA-I or 100 nmol/l insulin, 1 hour, FIG. 1b) [fold]
190-243 polypeptide fragment: polypeptide fragment consisting of amino acids 190-243 of the full-length human apoA-I protein, C-terminal domain, 54-mer, recombinant (AEYHAKATEHLSTLSEKAKPALEDLRQGLLPVLESFKVSFLSALEEYTKKLNTQ; listed as Homo Sapiens)	1.77±0.23	greater membrane levels of GLUT4 protein	significantly induced	–	–	–
insulin	–	induced translocation of GLUT4 into the sarcolemma plasma membrane	significantly induced	2.4±1.0	2.4±1.0	2
